Measured values reported in patent publication US20240343740A1, “MACROCYCLIC GLUCAGON-LIKE PEPTIDE 1 RECEPTOR AGONISTS” (Eli Lilly and Company, priority 2021, published 2024).

Tests used:
[1] = biological target: T1, human GLP-1R (Homo sapiens, UniProt P43220); test: Human GLP-1 Receptor HEK293 cell cAMP assay, 581 fmol/mg GLP-1R expression density; type: cell-based; design: expressed in transfected cells; host or cells: HEK293 clonal cell line; conditions: HEK293 cell line with 581 fmol/mg expression density of GLP-1R; for EC50: geometric mean, read-out: EC50 nM (SEM, n), intracellular cAMP response, relative EC50; for Emax: percent of maximal response to GLP-1(7-36)NH2, arithmetic mean, read-out: Emax % (SEM, n), intracellular cAMP response
Method: (§1) Human GLP-1 Receptor HEK293 Cell cAMP Assay
(§2) GLP-1 Receptor functional activity is determined using cAMP formation in an HEK293 clonal cell line expressing human GLP-1R (NCBI accession number NP_002053) at an expression density of 581±94 (n=6) and 104±12 (n=5) fmol/mg protein (determined using [^125I]GLP-1(7-36)NH2 homologous competition binding analysis). The hGLP-1R receptor expressing cells are treated with compound (20 point concentration-response curve in DMSO, 2.75-fold Labcyte Echo direct dilution, 384 well plate Corning Cat #3570) in DMEM (Gibco Cat #31053) supplemented with 1× GlutaMAX™ (Gibco Cat #35050), 0.1% bovine casein (Sigma C4765-10ML), 250 μM IBMX (3-Isobutyl-1-methylxanthine, Acros Cat #228420010) and 20 mM HEPES (Gibco Cat #15630) in a 20 μL assay volume (final DMSO concentration is 0.5%). After a 30 min incubation at 37° C., the resulting increase in intracellular cAMP is quantitatively determined using the CisBio cAMP Dynamic 2 HTRF Assay Kit (62AM4PEJ). Briefly, cAMP levels within the cell are detected by adding the cAMP-d2 conjugate in cell lysis buffer (10 μL) followed by the antibody anti-cAMP-Eu^3+-Cryptate, also in cell lysis buffer (10 μL). The resulting competitive assay is incubated for at least 60 min at RT, then detected using a PerkinElmer Envision® instrument with excitation at 320 nm and emission at 665 nm and 620 nm. Envision units (emission at 665 nm/620 nm*10,000) are inversely proportional to the amount of cAMP present and are converted to nM cAMP per well using a cAMP standard curve. The amount of cAMP generated (nM) in each well is converted to a percent of the maximal response observed with human GLP-1(7-36)NH2. A relative EC50 value and percent top (Emax) are derived by non-linear regression analysis using the percent maximal response vs. the concentration of compound added, fitted to a four-parameter logistic equation.

[2] = biological target: T1, human GLP-1R; test: Human GLP-1 Receptor HEK293 cell cAMP assay, 104 fmol/mg GLP-1R expression density; type: cell-based; design: expressed in transfected cells; host or cells: HEK293 clonal cell line; conditions: HEK293 cell line with 104 fmol/mg expression density of GLP-1R; for EC50: geometric mean, read-out: EC50 nM (SEM, n), intracellular cAMP response, relative EC50; for Emax: percent of maximal response to GLP-1(7-36)NH2, arithmetic mean, read-out: Emax % (SEM, n), intracellular cAMP response
Method: as §1, §2

T1 sequence (P43220 24-463): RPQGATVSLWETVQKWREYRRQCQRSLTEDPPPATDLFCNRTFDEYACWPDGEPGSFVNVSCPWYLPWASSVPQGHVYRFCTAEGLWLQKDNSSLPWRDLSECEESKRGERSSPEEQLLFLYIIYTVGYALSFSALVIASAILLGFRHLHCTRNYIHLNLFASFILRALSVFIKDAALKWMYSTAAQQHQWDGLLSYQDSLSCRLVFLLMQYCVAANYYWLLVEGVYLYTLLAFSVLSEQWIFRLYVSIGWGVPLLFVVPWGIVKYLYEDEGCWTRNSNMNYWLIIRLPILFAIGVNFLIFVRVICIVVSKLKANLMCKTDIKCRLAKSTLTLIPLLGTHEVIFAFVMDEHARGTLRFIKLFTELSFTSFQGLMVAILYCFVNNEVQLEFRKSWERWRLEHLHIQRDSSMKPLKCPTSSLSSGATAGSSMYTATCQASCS

| Structure (SMILES) | EC50 [1] [nM] | Emax [1] [%] | EC50 [2] [nM] | Emax [2] [%] |
| --- | --- | --- | --- | --- |
| N#Cc1ccc2c(c1)CCCOc1cc(ccc1Cc1nc3ccc(C(=O)O)cc3n1C[C@@H]1CCO1)-c1cccc(n1)OC2 [Example 4, (S)-2-((5^4-Cyano-3,9-dioxa-2(2,6)-pyridina-1(1,3),5(1,2)-dibenzenacyclononaphane-1^4-yl)methyl)-1-(oxetan-2-ylmethyl)-1H-benzo[d]imidazole-6-carboxylic acid] | 90.6 | 99.2 | 384 | 78.7 |
| COc1cc(C(=O)O)cc2c1nc(Cc1ccc3cc1OCCCc1cc(C#N)ccc1COc1cccc-3n1)n2C[C@@H]1CCO1 [Example 5, (S)-2-((5^4-Cyano-3,9-dioxa-2(2,6)-pyridina-1(1,3),5(1,2)-dibenzenacyclononaphane-1^4-yl)methyl)-4-methoxy-1-(oxetan-2-ylmethyl)-1H-benzo[d]imidazole-6-carboxylic acid] | 6.58 | 109 | 22.3 | 81.6 |
| N#Cc1ccc2c(c1)CCCOc1cc(ccc1Cc1nc3ccc(C(=O)O)nc3n1C[C@@H]1CCO1)-c1cccc(n1)OC2 [Example 6, (S)-2-((5^4-Cyano-3,9-dioxa-2(2,6)-pyridina-1(1,3),5(1,2)-dibenzenacyclononaphane-1^4-yl)methyl)-3-(oxetan-2-ylmethyl)-3H-imidazo[4,5-b]pyridine-5-carboxylic acid] | 166 | 97.2 | 1020 | 89.1 |
| N#Cc1ccc2c(c1)CCCOc1cc(ccc1Cc1nc3c(F)cc(C(=O)O)cc3n1C[C@@H]1CCO1)-c1cccc(n1)OC2 [Example 7, (S)-2-((5^4-cyano-3,9-dioxa-2(2,6)-pyridina-1(1,3),5(1,2)-dibenzenacyclononaphane-1^4-yl)methyl)-4-fluoro-1-(oxetan-2-ylmethyl)-1H-benzo[d]imidazole-6-carboxylic acid] | 20.1 | 104 | 96.8 | 92.9 |
| N#Cc1ccc2c(c1)CCCOc1cc(c(F)cc1Cc1nc3ccc(C(=O)O)cc3n1C[C@@H]1CCO1)-c1cccc(n1)NC2 [Example 8, (S)-2-((5^4-Cyano-1^6-fluoro-9-oxa-3-aza-2(2,6)-pyridina-1(1,3),5(1,2)-dibenzenacyclononaphane-1^4-yl)methyl)-1-(oxetan-2-ylmethyl)-1H-benzo[d]imidazole-6-carboxylic acid] | 168 | 90.5 | 815 | 81.5 |
| COc1cc(C(=O)O)cc2c1nc(Cc1cc(C)c3cc1OCCCc1cc(C#N)ccc1COc1cccc-3n1)n2C[C@@H]1CCO1 [Example 9, (S)-2-((5^4-Cyano-16-methyl-3,9-dioxa-2(2,6)-pyridina-1(1,3),5(1,2)-dibenzenacyclononaphane-1^4-yl)methyl)-4-methoxy-1-(oxetan-2-ylmethyl)-1H-benzo[d]imidazole-6-carboxylic acid] | 1.8 | 118 | 5.44 | 83.1 |
| N#Cc1ccc2cc1CCCOc1cc(c(F)cc1Cc1nc3ccc(C(=O)O)cc3n1C[C@@H]1CCO1)-c1cccc(n1)OC2 [Example 10, (S)-2-((5^4-Cyano-1^6-fluoro-3,9-dioxa-2(2,6)-pyridina-1,5(1,3)-dibenzenacyclononaphane-1^4-yl)methyl)-1-(oxetan-2-ylmethyl)-1H-benzo[d]imidazole-6-carboxylic acid] | 35.3 | 107 | 147 | 88.9 |
| CCn1cncc1Cn1c(Cc2ccc3cc2OCCCc2cc(C#N)ccc2COc2cccc-3n2)nc2ccc(C(=O)O)cc21 [Example 11, 2-((5^4-cyano-3,9-dioxa-2(2,6)-pyridina-1(1,3),5(1,2)-dibenzenacyclononaphane-1^4-yl)methyl)-1-((1-ethyl-1H-imidazol-5-yl)methyl)-1H-benzo[d]imidazole-6-carboxylic acid] | 35 | 92 | 194 | 81 |
